Test results: patent publication US20240277684A1, “BLOCKADE OF CHEMOKINE (C-C MOTIF) RECEPTOR 2 DURING FLUID RESUSCITATION” (University of South Florida, priority 2022, published 2024)

Assays:
normal rats = assay: Effects on blood pressure in normal rats; format: in vivo, rat
Experimental: In vivo animal experiments. All procedures were performed in accordance with the National Institutes of Health Guidelines for Use of Laboratory Animals and were approved by the University of South Florida Institutional Animal Care and Use Committeee (IS00008139). Male Sprague-Dawley rats (300-400 g, Envigo, Indianapolis, IN, USA). were anesthetized with 1.7% isoflurane via nose-cone inhalation with the SomnoSuite anesthesia system (Kent Scientific, Torrington, CT, USA). […] The left femoral artery was isolated and cannulated with a 24-gauge peripheral intravenous catheter to allow for blood withdrawal, hemodynamic monitoring, drug administration, and fluid resuscitation. Hemodynamics were continuously monitored with the SurgivetV6400 blood pressure monitor (Med-Electronics, Beltsville, MD, USA), and blood pressures and heart rate were recorded at 1-10 min intervals. All animals were observed over a 10 min period to ensure hemodynamic stability before start of the experiments. All experiments were performed randomized in alternating order. To test the effects of INCB3284 in normal rats, animals received repetitive injections of 1 mL of Lactated Ringer's solution (LR, vehicle) in 10 min intervals (n=3) or increasing doses of the drug (0.55, 0.82, 1.4 and 2.75 μmol/kg INCB3284) in 1 mL LR in 10 min intervals (n=3).

hemorrhagic shock = assay: Example 2 Series 3: 60 min hemorrhagic shock, redosing, fluid resuscitation until t=300 min; format: in vivo, rat; details: 5 μmol/kg at t=60 min and t=200 min
Experimental: The hemorrhagic shock models were performed as described previously, with slight modifications (DeSantis A J, et al., The Chemokine (C-C Motif) Receptor 2 Antagonist INCB3284 Reduces Fluid Requirements and Protects From Hemodynamic Decompensation During Resuscitation From Hemorrhagic Shock. Crit Care Explor 2022;4(5):e0701; Bach H H, et al., Chemokine (C-X-C motif) receptor 4 and atypical chemokine receptor 3 regulate vascular alpha(1)-adrenergic receptor function. Mol Med 2014; 20:435-47; Nassoiy S P, et al., Effects of the Kv7 voltage activated potassium channel inhibitor linopirdine in rat models of hemorrhagic shock. Clin Exp Pharmacol Physiol 2018. doi: 10.1111/1440-1681.12958. PubMed PMID: 29702725; Bach H H, et al., Proteasome inhibition prolongs survival during lethal hemorrhagic shock in rats. J Trauma Acute Care Surg 2013; 74(2):499-507). In brief, anesthesia induction was performed with the animal and isoflurane-soaked gauze placed in a bell jar. After anesthesia induction, the animals were transferred to the operative field and anesthesia was maintained with 2.7% isoflurane administered via nose-cone inhalation with the SomnoSuite small animal anesthesia system (Kent Scientific Corporation, Torrington, CT, USA). […] Using a direct cut-down technique, the left femoral artery was isolated and cannulated with a 24-gauge peripheral intravenous catheter to allow for blood withdrawal, hemodynamic monitoring, drug administration, and fluid resuscitation. After catheter placement, isoflurane was decreased to 1.5%. Hemodynamics were continuously monitored with the Surgivet invasive blood pressure monitor (Med-Electronics, Beltsville, MD, USA). Blood pressures were recorded at 1-5 min intervals during the hemorrhage and resuscitation periods. Four subsequent series of experiments were performed. All experiments in each series were performed in alternating order. In all experiments animals were continuously monitored and remained under general anesthesia until euthanasia or death, as defined by asystole or loss of pulse pressure.
Series 3: Rats were hemorrhaged to a MAP of less than or equal to 30 mmHg for a period of 60 min, followed by fluid resuscitation until t=300 min as in Series 2. At the end of the hemorrhagic shock period (t=60 min) and at t=200 min, animals were injected with 1 mL of NS (n=7) or with 5 μmol/kg INCB3284 in 1 mL NS (n=7). At t=0 min, 60 min, 120 min, 180 min, 240 min and 300 min, blood samples (0.3 ml) were obtained and used for arterial blood gas analyses and measurements of routine laboratory parameters. At t=300 min, surviving animals were euthanized (5% isoflurane inhalation, bilateral pneumothorax).
Arterial blood gases and routine laboratory parameters. Arterial blood gases, electrolytes, creatinine, lactate, hematocrit and hemoglobin were analyzed using the Element point of care veterinary blood gas, electrolyte and critical care analyzer (Cuattro Veterinary USA, Loveland, CO, USA).

CCR2 = CCR2 (Homo sapiens, UniProt P41597); details: read-out: IC50, inhibiting monocyte chemoattractant protein-1 binding to hCCR2; cited from earlier work
CCR2, sequence (P41597 whole entry): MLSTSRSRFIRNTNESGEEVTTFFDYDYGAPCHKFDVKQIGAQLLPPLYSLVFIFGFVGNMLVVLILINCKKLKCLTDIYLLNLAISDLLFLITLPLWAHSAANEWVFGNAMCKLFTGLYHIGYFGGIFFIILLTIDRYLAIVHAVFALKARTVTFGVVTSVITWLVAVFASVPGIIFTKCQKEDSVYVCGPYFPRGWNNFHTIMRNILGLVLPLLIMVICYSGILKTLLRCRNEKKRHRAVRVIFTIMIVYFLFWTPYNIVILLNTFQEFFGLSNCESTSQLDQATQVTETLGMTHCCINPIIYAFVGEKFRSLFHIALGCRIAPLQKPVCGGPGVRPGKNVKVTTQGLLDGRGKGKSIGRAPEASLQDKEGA

[1] = increasing doses 0.55, 0.82, 1.4 and 2.75 μmol/kg in 1 mL LR, 10 min intervals

COc1ccc([C@]2(O)CC[C@@H](N3CC[C@@H](NC(=O)CNC(=O)c4cccc(C(F)(F)F)c4)C3)CC2)cn1 [INCB3284]
MAP during the observation period (normal rats; [1]): remained constant | acute effects on blood pressure (normal rats; [1]): did not show acute effects on blood pressure | slope of the MAP linear regression line (normal rats; increasing doses 0.55-2.75 μmol/kg, not significantly different from zero (p=0.43)): −0.011 mmHg/min | steep increase in fluid requirements (hemorrhagic shock): prevented | reduction of total fluid requirements (hemorrhagic shock; at t=300 min, vs vehicle): 75% | total fluid requirements (hemorrhagic shock; at t=300 min, p<0.05 vs. vehicle): 33 ± 16 mL/kg | median survival time (hemorrhagic shock; p<0.05 vs. vehicle): undefined | mortality (hemorrhagic shock; p<0.05 vs. vehicle): zero | IC50 (CCR2): 3.7 nM
